Laboratory results as given in ChEMBL document CHEMBL4732126, “Design, synthesis, and biodistribution studies of new analogues of marine alkaloids: Potent in vitro and in vivo fungicidal agents against Candida spp” (Eur J Med Chem, 2021).
Active and inactive are the calls of the source. The calls are words filed in the database; no cut-off is given here.

Tests used:
[1] = tested on: Nakaseomyces glabratus; experiment: Antifungal activity against Candida glabrata ATCC 2001 assessed as reduction in fungal growth incubated for 48 hrs by broth microdilution method; assay type: functional
[2] = tested on: Candida tropicalis; experiment: Antifungal activity against Candida tropicalis ATCC 28707 assessed as reduction in fungal growth incubated for 48 hrs by broth microdilution method; assay type: functional
[3] = tested on: Candida albicans; experiment: Antifungal activity against Candida albicans isolate 8 assessed as reduction in fungal growth incubated for 48 hrs by broth microdilution method; assay type: functional
[4] = tested on: Candida albicans; experiment: Antifungal activity against Candida albicans isolate 9 assessed as reduction in fungal growth incubated for 48 hrs by broth microdilution method; assay type: functional
[5] = tested on: Candida albicans; experiment: Antifungal activity against Candida albicans isolate 11 assessed as reduction in fungal growth incubated for 48 hrs by broth microdilution method; assay type: functional
[6] = tested on: Candida albicans; experiment: Antifungal activity against Candida albicans isolate 12 assessed as reduction in fungal growth incubated for 48 hrs by broth microdilution method; assay type: functional
[7] = tested on: Nakaseomyces glabratus; experiment: Fungicidal activity against Candida glabrata ATCC 2001 assessed as fungal killing incubated for 48 hrs followed by plating on SD agar plate; assay type: functional; conditions: read-out: MFC99.9
[8] = tested on: Candida albicans; experiment: Fungicidal activity against Candida albicans isolate 4 assessed as fungal killing incubated for 48 hrs followed by plating on SD agar plate; assay type: functional; conditions: read-out: MFC99.9
[9] = tested on: Candida albicans; experiment: Fungicidal activity against Candida albicans isolate 5 assessed as fungal killing incubated for 48 hrs followed by plating on SD agar plate; assay type: functional; conditions: read-out: MFC99.9
[10] = tested on: Candida albicans; experiment: Fungicidal activity against Candida albicans isolate 6 assessed as fungal killing incubated for 48 hrs followed by plating on SD agar plate; assay type: functional; conditions: read-out: MFC99.9
[11] = tested on: Candida albicans; experiment: Fungicidal activity against Candida albicans isolate 12 assessed as fungal killing incubated for 48 hrs followed by plating on SD agar plate; assay type: functional; conditions: read-out: MFC99.9
[12] = tested on: Candida albicans; experiment: Fungicidal activity against Candida albicans ATCC 10231 assessed as reduction in fungal load at 15.6 ug/ml incubated for 4 hrs followed by inoculation on SD agar plate for 48 hrs by time-kill assay; assay type: functional; conditions: dose 15.6 µg/ml; time 52 hrs
[13] = tested on: Candida albicans; experiment: Disruption of cell membrane in Candida albicans ATCC 10231 assessed as increase in intracellular leakage at MIC incubated for 24 hrs by UV spectrophotometric analysis; assay type: cell-based
[14] = tested on: Nakaseomyces glabratus; experiment: Disruption of cell membrane in Candida glabrata ATCC 2001 assessed as increase in intracellular leakage at MIC incubated for 24 hrs by UV spectrophotometric analysis; assay type: cell-based
[15] = tested on: Candida tropicalis; experiment: Disruption of cell membrane in Candida tropicalis ATCC 28707 assessed as increase in intracellular leakage at MIC incubated for 24 hrs by UV spectrophotometric analysis; assay type: cell-based
[16] = tested on: Candida albicans; experiment: Disruption of cell membrane in Candida albicans ATCC 10231 assessed as increase in number of invagination at 2 times of MIC incubated for 1 hr by SEM analysis
[17] = Toxicity in Swiss mouse assessed as effect on kidney at 0.5 to 10 mg/kg, ip measured after 24 hrs by macroscopic analysis; assay type: organism-based; conditions: in vivo, dose 0.5-10 mg/kg
[18] = Toxicity in Swiss mouse assessed as effect on lung at 0.5 to 10 mg/kg, ip measured after 24 hrs by macroscopic analysis; assay type: organism-based; conditions: in vivo, dose 0.5-10 mg/kg
[19] = Toxicity in Swiss mouse assessed as body weight at 0.5 mg/kg, ip measured after 24 hrs (reference value: 36.25 +/- 0.31 g); assay type: organism-based; conditions: in vivo
[20] = Toxicity in Swiss mouse assessed as body weight at 3 mg/kg, ip measured after 24 hrs (reference value: 36.25 +/- 0.31 g); assay type: organism-based; conditions: in vivo
[21] = Toxicity in Swiss mouse assessed as relative lung weight at 3 mg/kg, ip measured after 24 hrs (reference value: 6.35 +/- 0.68 g); assay type: organism-based; conditions: in vivo
[22] = Toxicity in Swiss mouse assessed as relative lung weight at 10 mg/kg, ip measured after 24 hrs (reference value: 6.35 +/- 0.68 g); assay type: organism-based; conditions: in vivo
[23] = Toxicity in Swiss mouse assessed as relative spleen weight at 1 mg/kg, ip measured after 24 hrs (reference value: 4.02 +/- 0.59 g); assay type: organism-based; conditions: in vivo
[24] = Toxicity in Swiss mouse assessed as relative heart weight at 3 mg/kg, ip measured after 24 hrs (reference value: 4.75 +/- 0.60 g); assay type: organism-based; conditions: in vivo
[25] = Toxicity in Swiss mouse assessed as relative heart weight at 10 mg/kg, ip measured after 24 hrs (reference value: 4.75 +/- 0.60 g); assay type: organism-based; conditions: in vivo
[26] = Toxicity in Swiss mouse assessed as relative heart weight at 20 mg/kg, ip measured after 24 hrs (reference value: 4.75 +/- 0.60 g); assay type: organism-based; conditions: in vivo
[27] = Toxicity in Swiss mouse assessed as relative liver weight at 0.5 mg/kg, ip measured after 24 hrs (reference value: 49.42 +/- 7.17 g); assay type: organism-based; conditions: in vivo
[28] = Toxicity in Swiss mouse assessed as relative liver weight at 3 mg/kg, ip measured after 24 hrs (reference value: 49.42 +/- 7.17 g); assay type: organism-based; conditions: in vivo
[29] = Toxicity in Swiss mouse assessed as ataxia at 20 mg/kg, ip measured after 30 mins; assay type: organism-based; conditions: in vivo, 0.5 h
[30] = tested on: Candida albicans; experiment: In vivo antifungal activity in Swiss mouse infected with Candida albicans ATCC 10231 assessed as reduction in fungal load in liver at 1 mg/kg, ip administered at 2, 24 and 48 hrs post-infection and measured per gm of organ at 24 hrs post-last dose (reference value: 1.80); assay type: functional; conditions: time 72 hrs
[31] = tested on: Candida albicans; experiment: In vivo antifungal activity in Swiss mouse infected with Candida albicans ATCC 10231 assessed as reduction in fungal load in kidney at 1 mg/kg, ip administered at 2, 24 and 48 hrs post-infection and measured per gm of organ at 24 hrs post-last dose (reference value: 2.47); assay type: functional; conditions: time 72 hrs
[32] = tested on: Candida albicans; experiment: In vivo antifungal activity in Swiss mouse infected with Candida albicans ATCC 10231 assessed as reduction in fungal load in spleen at 1 mg/kg, ip administered at 2, 24 and 48 hrs post-infection and measured per gm of organ at 24 hrs post-last dose (reference value: 2.34); assay type: functional; conditions: time 72 hrs
[33] = Toxicity in Swiss mouse infected with Candida albicans ATCC 10231 assessed as effect on body weight at 0.5 to 1 mg/kg, ip administered at 2, 24 and 48 hrs post-infection and measured at 24 hrs after last dose; assay type: organism-based; conditions: in vivo, 72 h, dose 0.5-1 mg/kg
[34] = Toxicity in Swiss mouse infected with Candida albicans ATCC 10231 assessed as effect on liver weight at 10 mg/kg, ip administered at 2, 24 and 48 hrs post-infection and measured at 24 hrs after last dose; assay type: organism-based; conditions: in vivo, 72 h
[35] = Toxicity in Swiss mouse infected with Candida albicans ATCC 10231 assessed as effect on heart weight at 10 mg/kg, ip administered at 2, 24 and 48 hrs post-infection and measured at 24 hrs after last dose; assay type: organism-based; conditions: in vivo, 72 h
[36] = Toxicity in Swiss mouse infected with Candida albicans ATCC 10231 assessed as effect on kidney weight at 10 mg/kg, ip administered at 2, 24 and 48 hrs post-infection and measured at 24 hrs after last dose; assay type: organism-based; conditions: in vivo, 72 h
[37] = Toxicity in Swiss mouse infected with Candida albicans ATCC 10231 assessed as effect on heart at 10 mg/kg, ip administered at 2, 24 and 48 hrs post-infection and measured at 24 hrs after last dose by macroscopic analysis; assay type: organism-based; conditions: in vivo, 72 h

Compound: [Cl-].[N-]=[N+]=NCCCCCCCCCCCCOCCCc1ccc[n+](Cc2ccccc2)c1
- MIC [1]: 7.8 mg/L
- MIC [2]: 7.8 mg/L
- MIC [3]: 3.9 mg/L
- MIC [4]: 15.6 mg/L
- MIC [5]: 7.8 mg/L
- MIC [6]: 7.8 mg/L
- MFC [7]: 7.8 mg/L
- MFC [8]: 1.95 mg/L
- MFC [9]: 7.8 mg/L
- MFC [10]: 31.2 mg/L
- MFC [11]: 7.8 mg/L
- log(activity) [12]: 2
- Activity [13]: Active
- Activity [14]: Active
- Activity [15]: Active
- Activity [16]: Active
- Activity [17]: Non-Toxic
- Activity [18]: Non-Toxic
- Activity [19]: 37.37 g
- Activity [20]: 38.87 g
- Activity [21]: 5.19 g
- Activity [22]: 6.01 g
- Activity [23]: 4.29 g
- Activity [24]: 4.45 g
- Activity [25]: 4.95 g
- Activity [26]: 4.93 g
- Activity [27]: 43.25 g
- Activity [28]: 45.03 g
- Activity [29]: Toxic
- Activity [30]: 1.78 log10CFU
- Activity [31]: 0 log10CFU
- Activity [32]: 0 log10CFU
- Activity [33]: Non-Toxic
- Activity [34]: Non-Toxic
- Activity [35]: Non-Toxic
- Activity [36]: Non-Toxic
- Activity [37]: Non-Toxic
